Series [1] in a line: Human liver microsome stability. Format: in vitro ADME. As to conditions: for Human Liver Microsome Stability Remaining(T = 60 min) / Human Liver Microsome Stability Remaining(NCF = 60 min): given as fraction. The method, then:
(§1) Metabolic Stability and Plasma Stability. Test compound Working solution: 5 μL of compound stock solution (10 mM in dimethyl sulfoxide (DMSO)) were diluted with 495 μL of DMSO (Working solution concentration: 100 μM, 100% DMSO). Propantheline bromide Working solution: 5 μL of Propantheline bromide stock solution (10 mM in H2O) were diluted with 495 μL of H2O (Working solution concentration: 100 μM, 100% H2O)
Background: Liver microsomes are vesicles of endoplasmic reticulum, rich in cytochrome P450 enzymes.

Another series deals with hACSS-2 (Homo sapiens (Human), UniProt Q9NR19). Nature of the series: Surface plasmon resonance (SPR) binding to immobilized hACSS-2. Particulars: for koff / kon: 1:1 binding model. The method, then: SPR characterization. All binding assays were performed on a ProteOn XPR36 SPR Protein Interaction Array System (Bio-Rad Laboratories, Hercules, CA, USA). The instrument temperature was set at 25° C. for all kinetic analyses. ProteOn GLH sensor chips were preconditioned with two short pulses each (10 s) of 50 mM NaOH, 100 mM HCl, and 0.5% sodium dodecyl […]. Then the system was equilibrated with running buffer (1×PBS pH 7.4, 3% DMSO and 0.005% polysorbate 20). The surface of a GLH sensor chip was activated with a 1:100 dilution of a 1:1 mixture of 1-ethyl-3-(3-dimethylaminopropyl) carbodiimide hydrochloride (0.2 M) and sulfo-N-hydroxysuccinimide (0.05 M). […] Then, after unreacted protein had been washed out, excess active ester groups on the sensor surface were capped by a 5 min injection of 1M ethanolamine HCl (pH 8.0) at a flow rate of 5 μL/min. A reference surface was similarly created by immobilizing a nonspecific protein (IgG b12 anti-HIV-1 gp120; was obtained through the NIH AIDS Reagent Program, Division of AIDS, NIAID, NIH: Anti-HIV-1 gp120 Monoclonal (IgG1 b12) from Dr. Dennis Burton and Carlos Barbas) and was used as a background to correct nonspecific binding. Serial dilutions of hACSS-2 inhibitors were then prepared in the running buffer and injected at a flow rate of 100 μL/min, for a 50 s association phase, followed by up to a 5 min dissociation phase using the “one-shot kinetics” capability of the ProteOn instrument. Data were analyzed using the ProteOn Manager Software version 3.0 (Bio-Rad). The responses from the reference flow cell were subtracted to account for the nonspecific binding and injection artifacts. Experimental data were fitted to a simple 1:1 binding model. Experiments were performed in triplicate to detect kinetic and equilibrium dissociation constants (KD).
Overproduction of hACSS-2 was achieved using a prokaryotic expression system. […] The bacterial expressions were then spun down, the supernatant discarded, and the pellets resuspended. After the cells were lysed via sonication, the sample was subjected to ultracentrifugation, and the clarified lysate was applied to a Talon cobalt resin affinity column (Clonetech Laboratories, Mountain View, CA). The bound protein was eluted from the column using 1×PBS pH 7.4 with 0.3 M imidazole, then dialyzed overnight into 20 mM Tris-HCl pH 8.0, concentrated to 10 mg/mL, aliquoted, and stored at −80° C.
In general terms: SPR reads the build-up and loss of mass on a sensor chip optically.

A short description of a further series: Human plasma stability. Format: in vitro ADME. Particulars: both sexes, 37° C., up to 120 min, read-out: Human Plasma Stability T1/2. Here is the method:
as §1
Human plasma from 3 males and 3 females was obtained. Heparin was used as the anticoagulant. The pooled frozen plasma was thawed in a water bath at 37° C. prior to experiment. Plasma was centrifuged at 4000 rpm for 5 min and the clots were removed if any. Using an Apricot automation workstation, 98 μL/well of blank plasma were added to all 96-well reaction plates. (Blank, T0, T10, T30, T60 and T120). The appointed incubation time points are T0 (0 min), Tn (n=0, 10, 30, 60, 120 min). An Apricot automation workstation was used to add 2 μL/well of working solution (100 μM) to all reaction plates except Blank. (T0, T10, T30, T60 and T120). All reaction plates containing mixtures of compound and plasma were incubated at 37° C. in water bath. The reaction plates were incubated at 37° C., and timer was started. At the end of incubation, 500 μL of stop solution was added and mixed (200 ng/mL tolbutamide and 200 ng/ml labetalol in ACN) to precipitate protein. Each plate was sealed and shaken for 20 minutes. After shaking, each plate was centrifuged at 4000 rpm and 4° C. for 20 minutes. After centrifugation, an Apricot automation workstation was used to transfer 150 μL of supernatant from each reaction plate to its corresponding bioanaylsis plate. Each bioanalysis plate was sealed and shaken for 10 minutes prior to LC-MS/MS analysis. The % remaining of test compound after incubation in plasma was calculated using following equation: Remaining=100×(PAR at appointed incubation time/PAR at T0 time) where PAR is the peak area ratio of analyte versus internal standard (IS).

A further series concerns MDR1. In words: in vitro. Particulars: dog, MDCK-MDR1, pH 7.4, Mean % Solution Recovery A to B. The method, then:
MDCKI MDR1 cell permeability assessment was performed to mimic the blood brain barrier. MDR1-MDCK I cells were seeded onto […] (PET) in 96-well Corning insert systems at 2.5×10^5 cells/mL until to 4-7 days for confluent cell monolayer formation. The transport buffer in the study was HBSS with 10.0 mM HEPES at pH 7.40+0.05. Test compounds were tested at 2.00 μM bi-directionally in duplicate. […] Final DMSO concentration was adjusted to less than 1%. The plate was incubated for 1.5 hours in CO2 incubator at 37±1° C., with 5% CO2 at saturated humidity without shaking. All samples after mixed with acetonitrile containing internal standard were centrifuged at 3220×g for 10 min. For all samples, 150 μL supernatant solution was diluted with 150 μL ultra-pure water for LC-MS/MS analysis. In addition, the efflux ratio of each compound was also determined. Test and reference compounds were quantified by LC-MS/MS analysis based on the peak area ratio of analyte/IS. After transport assay, Lucifer yellow rejection assay are applied to determine the cell monolayer integrity. Buffers are removed from both apical and basolateral chambers, followed by the addition of 75 μL of 100 μM lucifer yellow in transport buffer and 250 μL transport buffer in apical and basolateral chambers, respectively. […] After 30 minutes incubation, 20 μL of lucifer yellow samples are taken from the apical sides, followed by the addition of 60 μL of Transport Buffer. And then 80 μL of lucifer yellow samples are taken from the basolateral sides.
The apparent permeability coefficient Papp (cm/s) was calculated using the equation: Papp=(dCr/dt)×Vr/(A×C0) where dCr/dt is the cumulative concentration of compound in the receiver chamber as a function of time (μM/s); Vr is the solution volume in the receiver chamber (0.075 mL on the apical side, 0.25 mL on the basolateral side); A is the surface area for the transport, i.e. 0.0804 cm^2 for the area of the monolayer; CO is the initial concentration in the donor chamber (μM). […] Percent of lucifer yellow in basolateral well is calculated using the equation: Where RFUApical and RFUBasolateral are the relative fluorescence unit values of lucifer yellow in the apical and basolateral wells, respectively; VApical and VBasolateral are the volume of apical and basolateral wells (0.075 mL and 0.25 mL), respectively. The % Lucifer Yellow should be less than 1.0.

The mark [2] stands for this setting: Langmuir isotherm equilibrium fit, mean, n = 3, read-out: KD [μM] equilibrium.
[3] abbreviates: global fit, mean, n = 3, read-out: KD [μM] kinetic/global.
Where [4] appears, read: read-out: Affinity (KD in μM) for hACSS-2 mean ± SD (n = 3), SPR, one site binding model isotherm, triplicate.

As a reminder, the koff is a measure of how fast the partners let go of each other. A low value points to slow dissociation. The kon is a measure of how fast the partners come together. Read a high kon as fast association.

Where two headings read alike, the source gives them in different places.

hACSS-2, sequence (Q9NR19 whole entry): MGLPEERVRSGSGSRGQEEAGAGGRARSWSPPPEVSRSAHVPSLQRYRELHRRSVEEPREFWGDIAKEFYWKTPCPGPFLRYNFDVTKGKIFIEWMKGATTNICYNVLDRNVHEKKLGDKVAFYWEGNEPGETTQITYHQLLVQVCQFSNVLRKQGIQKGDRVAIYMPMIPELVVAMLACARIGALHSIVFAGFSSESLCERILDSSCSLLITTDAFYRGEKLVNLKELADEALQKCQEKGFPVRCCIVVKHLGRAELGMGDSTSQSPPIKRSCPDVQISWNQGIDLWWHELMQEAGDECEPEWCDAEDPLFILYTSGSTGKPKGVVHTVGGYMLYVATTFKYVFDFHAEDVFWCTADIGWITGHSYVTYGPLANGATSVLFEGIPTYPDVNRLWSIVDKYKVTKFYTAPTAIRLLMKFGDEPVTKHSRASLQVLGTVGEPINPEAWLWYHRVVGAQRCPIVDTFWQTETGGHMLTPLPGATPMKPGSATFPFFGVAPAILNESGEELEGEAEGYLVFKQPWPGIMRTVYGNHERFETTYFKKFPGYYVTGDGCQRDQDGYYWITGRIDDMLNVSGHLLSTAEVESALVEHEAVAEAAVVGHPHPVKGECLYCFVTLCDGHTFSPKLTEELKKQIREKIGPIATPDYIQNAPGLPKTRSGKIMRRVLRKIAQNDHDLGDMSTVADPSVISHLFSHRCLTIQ

Take `O=C(O)Cc1ccccc1Nc1c(Cl)cccc1Cl` [Diclofenac, reference compound]: in series [1], the “Human Liver Microsome Stability Remaining(T = 60 min)” value amounted to 0.00044 and the “Human Liver Microsome Stability Remaining(NCF = 60 min)” value came out at 0.8763.
On to `Cc1cccn2c(CC(=O)NCCC(c3ccccc3)c3ccco3)cnc12` (stereo not shown) [AD-3766], for which, on hACSS-2 (mean, n = 3), the koff was 0.359 s⁻¹ and the kon worked out at 5010 M⁻¹ s⁻¹. At hACSS-2 (setting [2]), the Kd worked out at 70.6 µM. Moreover, the Kd on hACSS-2 (setting [3]) is 77.6 µM. At hACSS-2 (setting [4]), the Kd amounted to 67 ± 13 µM. For the same compound, in series [1], the “Human Liver Microsome Stability Remaining(T = 60 min)” value came out at 0.0005 and the “Human Liver Microsome Stability Remaining(NCF = 60 min)” value turned out to be 0.9639. The “Human Liver Microsome Stability CLint(liver)” value in series [1] (human liver microsomes, scaled to liver) is listed as 1364.4891 mL/min/kg. The half-life at 2 µM in “Human plasma stability” was above 289 min.
In the series on MDR1, `COCCc1ccc(OCC(O)CNC(C)C)cc1` (stereo not shown) [Metoprolol, reference compound] gave a recovery at 1.5 h, 2 μM of 94.2%.
On to `C[C@]12CC[C@H]3[C@@H](CCC4=CC(=O)CC[C@@]43C)[C@@H]1CC[C@@H]2O` [Testosterone, reference compound], for which, in series [1], the “Human Liver Microsome Stability Remaining(T = 60 min)” value is 0.06959 and the “Human Liver Microsome Stability Remaining(NCF = 60 min)” value stood at 0.8976.
For `NC1(C(=O)N2CCCC(c3ccccc3)(c3ccccc3)C2)CC1` [AD-6772], on hACSS-2 (setting [4]), the Kd worked out at 80 ± 20 µM.
The same measure, in the same setting: to `O=S(=O)(NCCC(c1ccccc1)c1ccco1)N1CCOCC1` (stereo not shown) [AD-4859] belongs 52 ± 2 µM.
Turning to `CC(C)[N+](C)(CCOC(=O)C1c2ccccc2Oc2ccccc21)C(C)C` [Propantheline Bromide, Propantheline bromide, reference compound], the half-life at 2 µM in the series “Human plasma stability” came to 18.6 min.
`CN1CCN(CCC(=O)N2CCCC(c3ccccc3)(c3ccccc3)C2)CC1` [AD-0029]: the Kd at hACSS-2 (setting [4]) turned out to be 356 ± 108 µM.
For `CN1CCC(O)(C(=O)NCCc2ccccc2Oc2ccccc2)CC1` [AD-7346], the koff on hACSS-2 (mean, n = 3) is 0.399 s⁻¹. The kon at hACSS-2 (mean, n = 3) came out at 10100 M⁻¹ s⁻¹. The Kd worked out at 39.8 µM at hACSS-2 (setting [2]), 49.4 µM on hACSS-2 (setting [3]) and 53 ± 21 µM on hACSS-2 (setting [4]).
Compound `O=C(CC1CCNC1)NCCC(c1ccccc1)c1ccccc1` (stereo not shown) [AD-8972] showed a koff on hACSS-2 (mean, n = 3) of 0.401 s⁻¹. For the same compound, the kon at hACSS-2 (mean, n = 3) turned out to be 2830 M⁻¹ s⁻¹. The results for the Kd on hACSS-2 (setting [2]), at hACSS-2 (setting [3]) and on hACSS-2 (setting [4]) were 124 µM, 149 µM and 116 ± 82 µM, respectively.

Source of the values: US20250213546A1, “TREATING CANCER WITH SMALL MOLECULES THAT INHIBIT ACSS-2” (DREXEL UNIVERSITY, priority 2022, published 2025).
